pIC50: −log10 of the molar value.

We go through 32 compounds from patent US9637469B2, “Pyridine derivative” (Teijin Pharma Limited, priority 2012, dated 2017).

This assay deals with T1, human URAT1 (Homo sapiens, UniProt Q96S37).
T1 construct: Full-length cDNA of human URAT1 (hURAT1)
T1 sequence (Q96S37 1-553): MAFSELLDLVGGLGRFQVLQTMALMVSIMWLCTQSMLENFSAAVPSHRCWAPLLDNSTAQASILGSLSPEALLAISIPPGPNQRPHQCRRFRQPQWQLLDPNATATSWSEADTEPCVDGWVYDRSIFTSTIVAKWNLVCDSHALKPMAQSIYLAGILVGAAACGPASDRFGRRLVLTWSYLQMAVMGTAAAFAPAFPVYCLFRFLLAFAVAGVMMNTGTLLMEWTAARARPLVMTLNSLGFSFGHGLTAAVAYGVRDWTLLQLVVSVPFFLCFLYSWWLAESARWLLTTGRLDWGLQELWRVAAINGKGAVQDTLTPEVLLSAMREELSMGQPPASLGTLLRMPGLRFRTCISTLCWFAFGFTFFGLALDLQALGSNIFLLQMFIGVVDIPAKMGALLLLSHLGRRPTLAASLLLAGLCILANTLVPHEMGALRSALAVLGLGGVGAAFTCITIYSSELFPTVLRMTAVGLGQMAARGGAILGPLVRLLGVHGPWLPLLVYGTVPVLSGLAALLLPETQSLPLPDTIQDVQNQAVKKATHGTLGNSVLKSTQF
The experiment in a line: Test for inhibition of uric acid transport using human URAT1-expressing cells.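 As to all read-outs here: three stars up to 0.2 µM two stars 0.2-2 µM one star 2-20 µM.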 In kind it is cell-based. The conditions noted are these: HEK 293 cells expressing human URAT1, 14C-labeled uric acid 25 μM, uptake 37° C. for 5 min; for pIC50: read-out: Inhibitory Activity (IC50 of uric acid transport inhibition). Summed up:
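IC50 values reflect inhibition of ¹⁴C-uric acid uptake (25 μM final, 5 min, 37 °C) by compound. Cells were HEK293 stably expressing full-length human URAT1, preincubated in Na-gluconate-substituted HBSS. Radioactivity in lysates was expressed relative to DMSO control as 100%.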

For `O=C(O)c1c(C(F)(F)F)nc(-c2cccnc2)n1Cc1csc2cccc(Br)c12` [Compound A31, 1-((4-bromobenzo[b]thiophen-3-yl)methyl)-2-(pyridin-3-yl)-4-(trifluoromethyl)-1H-imidazole-5-carboxylic acid], the “Inhibitory Activity (IC50 of uric acid transport inhibition)” value (“Inhibitory Activity” for short) is “* *”.

In the case of `CCC(O)(CC)c1nc(-c2cncc(F)c2)n(Cc2cc(Cl)ccc2Cl)c1C(=O)O` [Compound A215, 1-(2,5-dichlorobenzyl)-2-(5-fluoropyridin-3-yl)-4-(3-hydroxypentan-3-yl)-1H-imidazole-5-carboxylic acid], the “Inhibitory Activity” value is “* * *”.

`Cc1nc(-c2cnc3ccccc3c2)n(Cc2cc(Cl)ccc2Cl)c1C(=O)O` [Compound A67, 1-(2,5-dichlorobenzyl)-4-methyl-2-(quinolin-3-yl)-1H-imidazole-5-carboxylic acid]: the “Inhibitory Activity” value was “* *”.

Regarding `Cc1nc(-c2cccnc2)n(Cc2csc3cccc(Br)c23)c1C(=O)O` [Compound A8, 1-((4-bromobenzo[b]thiophen-3-yl)methyl)-4-methyl-2-(pyridin-3-yl)-1H-imidazole-5-carboxylic acid], the “Inhibitory Activity” value is “* *”.

Regarding `Cc1nc(-c2cccnc2)n(Cc2cccc(Cl)c2F)c1C(=O)O` [Compound A74], the pIC50 (usually the negative decadic logarithm of the IC50, by convention in mol/L) was 4.70 to 5.70.

In the case of `Cc1nc(-c2cccnc2)n(Cc2cc(Cl)ccc2Cl)c1C(=O)NS(C)(=O)=O` [Compound A111, 1-(2,5-dichlorobenzyl)-4-methyl-N-(methylsulfonyl)-2-(pyridin-3-yl)-1H-imidazole-5-carboxamide], the pIC50 is 4.70 to 5.70.

For the compound `Cc1nc(-c2cccnc2)n(Cc2ccccc2OC(F)(F)F)c1C(=O)O` [Compound A62], the pIC50 is 4.70 to 5.70.

`Cc1nc(-c2ccccn2)n(Cc2cc(Cl)ccc2Cl)c1C(=O)O` [Compound A245, 1-(2,5-dichlorobenzyl)-4-methyl-2-(pyridin-2-yl)-1H-imidazole-5-carboxylic acid]: the “Inhibitory Activity” value was “* * *”.

Take `CS(=O)(=O)NC(=O)c1ccc(-c2cncc(Cl)c2)n1Cc1cc(Cl)ccc1Cl` [Compound B29, 2-(5-chloropyridin-3-yl)-1-(2,5-dichlorobenzyl)-N-(methylsulfonyl)-1H-pyrrole-5-carboxamide]: the “Inhibitory Activity” value was “* * *”.

Turning to `COc1cncc(-c2nc(C)c(C(=O)O)n2Cc2cc(Cl)ccc2Cl)c1` [Compound A157, 1-(2,5-dichlorobenzyl)-2-(5-methoxypyridin-3-yl)-4-methyl-1H-imidazole-5-carboxylic acid], the “Inhibitory Activity” value was “* * *”.

Turning to `Cc1nc(-c2cncc(OCC(C)C)c2)n(Cc2cc(Cl)ccc2Cl)c1C(=O)O` [Compound A188, 1-(2,5-dichlorobenzyl)-2-(5-isobutoxypyridin-3-yl)-4-methyl-1H-imidazole-5-carboxylic acid], the “Inhibitory Activity” value is “* * *”.

As to `Cc1nc(-c2cccnc2)n(Cc2cc(C(F)(F)F)ccc2C(F)(F)F)c1C(=O)O` [Compound A46, 1-(2,5-bis(trifluoromethyl)benzyl)-4-methyl-2-(pyridin-3-yl)-1H-imidazole-5-carboxylic acid], the “Inhibitory Activity” value is recorded as “* *”.

Consider `Cc1ccc(Cl)c(Cn2c(-c3cccnc3)nc(C)c2C(=O)O)c1` [Compound A78, 1-(2-chloro-5-methylbenzyl)-4-methyl-2-(pyridin-3-yl)-1H-imidazole-5-carboxylic acid], for which the “Inhibitory Activity” value is on record as “* * *”.

For the compound `Cc1nc(-c2cccnc2)n(Cc2cccc(F)c2)c1C(=O)O` [Compound A49], the negative logarithm of the IC50 (pIC50) was 4.70 to 5.70.

As to `Clc1cncc(-c2ncc(-c3nnn[nH]3)n2Cc2cc(Cl)ccc2Cl)c1` [Compound A237, 3-chloro-5-(1-(2,5-dichlorobenzyl)-5-(1H-tetrazol-5-yl)-1H-imidazol-2-yl)pyridine], the “Inhibitory Activity” value is reported as “* * *”.

As for `O=C(O)c1ccc(-c2cccnc2)n1Cc1cccc2cccc(Br)c12` [Compound B6, 1-((8-bromonaphthalen-1-yl)methyl)-2-(pyridin-3-yl)-1H-pyrrole-5-carboxylic acid], the “Inhibitory Activity” value is reported as “* * *”.

Regarding `Cc1nc(-c2cncc(Cl)c2)n(Cc2csc3cccc(Cl)c23)c1C(=O)O` [Compound A142, 1-((4-chlorobenzo[b]thiophen-3-yl)methyl)-2-(5-chloropyridin-3-yl)-4-methyl-1H-imidazole-5-carboxylic acid], the “Inhibitory Activity” value was “* * *”.

With `Cc1ccc(C)c(Cn2c(-c3cncc(Cl)c3)nc(C)c2C(=O)O)c1` [Compound A179, 2-(5-chloropyridin-3-yl)-1-(2,5-dimethylbenzyl)-4-methyl-1H-imidazole-5-carboxylic acid], the “Inhibitory Activity” value is “* * *”.

`Cc1nc(-c2cccnc2)n(Cc2ccc(C)c3ccccc23)c1C(=O)O` [Compound A17, 4-methyl-1-((4-methylnaphthalen-1-yl)methyl)-2-(pyridin-3-yl)-1H-imidazole-5-carboxylic acid]: the “Inhibitory Activity” value was “* *”.

For `O=C(O)c1c(C2CC2)nc(-c2cccnc2)n1Cc1csc2cccc(Br)c12` [Compound A34, 1-((4-bromobenzo[b]thiophen-3-yl)methyl)-4-cyclopropyl-2-(pyridin-3-yl)-1H-imidazole-5-carboxylic acid], the “Inhibitory Activity” value is listed as “* *”.

In the case of `CCc1nc(-c2cncc(Cl)c2)n(Cc2cc(Cl)ccc2Cl)c1C(=O)O` [Compound A151, 2-(5-chloropyridin-3-yl)-1-(2,5-dichlorobenzyl)-4-ethyl-1H-imidazole-5-carboxylic acid], the “Inhibitory Activity” value is listed as “* * *”.

Regarding `Cc1nc(Oc2cnccc2Cl)n(Cc2cc(Cl)ccc2Cl)c1C(=O)O` [Compound A257, 2-((4-chloropyridin-3-yl)oxy)-1-(2,5-dichlorobenzyl)-4-methyl-1H-imidazole-5-carboxylic acid], the “Inhibitory Activity” value is reported as “* * *”.

With `Cc1nc(-c2cccnc2)n(Cc2cccc(Cl)c2)c1C(=O)O` [Compound A52], the pIC50 was 4.70 to 5.70.

In the case of `O=C(O)c1c(C(F)F)nc(-c2cncc(Cl)c2)n1Cc1cc(Cl)ccc1Cl` [Compound A207, 2-(5-chloropyridin-3-yl)-1-(2,5-dichlorobenzyl)-4-(difluoromethyl)-1H-imidazole-5-carboxylic acid], the “Inhibitory Activity” value was “* * *”.

Regarding `Cc1nc(-c2cccnc2)n(Cc2cc(Cl)ccc2C(F)(F)F)c1C(=O)O` [Compound A44, 1-(5-chloro-2-(trifluoromethyl)benzyl)-4-methyl-2-(pyridin-3-yl)-1H-imidazole-5-carboxylic acid], the “Inhibitory Activity” value is “* *”.

In the case of `O=C(O)c1c(C2CC2)nc(-c2cncc(F)c2)n1Cc1cccc2ccccc12` [Compound A153, 4-cyclopropyl-2-(5-fluoropyridin-3-yl)-1-(naphthalen-1-ylmethyl)-1H-imidazole-5-carboxylic acid], the “Inhibitory Activity” value was “* *”.

`Cc1nc(-c2cncc(C(F)F)c2)n(Cc2cc(Cl)ccc2Cl)c1C(=O)O` [Compound A208, 1-(2,5-dichlorobenzyl)-2-(5-(difluoromethyl)pyridin-3-yl)-4-methyl-1H-imidazole-5-carboxylic acid]: the “Inhibitory Activity” value is listed as “* * *”.

Take `O=C(O)c1c(C2CC2)nc(-c2cccnc2)n1Cc1csc2cccc(C(F)(F)F)c12` [Compound A35, 4-cyclopropyl-2-(pyridin-3-yl)-1-((4-(trifluoromethyl)benzo[b]thiophen-3-yl)methyl)-1H-imidazole-5-carboxylic acid]: the “Inhibitory Activity” value was “* *”.

As for `N#Cc1nc(-c2cccnc2)n(Cc2cc(Cl)ccc2Cl)c1C(=O)O` [Compound A101, 4-cyano-1-(2,5-dichlorobenzyl)-2-(pyridin-3-yl)-1H-imidazole-5-carboxylic acid], the “Inhibitory Activity” value is reported as “* * *”.

With `O=C(O)c1ccc(-c2cncc(Cl)c2)n1Cc1csc2cccc(Cl)c12` [Compound B18, 1-((4-chlorobenzo[b]thiophen-3-yl)methyl)-2-(5-chloropyridin-3-yl)-1H-pyrrole-5-carboxylic acid], the “Inhibitory Activity” value is “* * *”.

On to `O=C(O)c1c(I)nc(-c2cccnc2)n1Cc1cc(Cl)ccc1Cl` [Compound A90, 1-(2,5-dichlorobenzyl)-4-iodo-2-(pyridin-3-yl)-1H-imidazole-5-carboxylic acid], for which the “Inhibitory Activity” value is “* * *”.

For the compound `Cc1nc(-c2cccnc2)n(Cc2ccc(Cl)c(Cl)c2)c1C(=O)O` [Compound A68, 1-(3,4-dichlorobenzyl)-4-methyl-2-(pyridin-3-yl)-1H-imidazole-5-carboxylic acid], the “Inhibitory Activity” value is listed as “* *”.
